From patent US20220233457A1 (DAEGU CATHOLIC UNIVERSITY INDUSTRY ACADEMIC COOPERATION …, priority 2021, published 2022)
Entries after “also recorded” stand apart in the source; their conditions may differ.

Legend:
MMP-9 = MMP-9 expression in cerebral arterial wall (IHC, real-time PCR, Western blot); format: in vivo, mouse; conditions: compared to diseased group (D); for expression level of MMP-9 protein: Western blot; for MMP-9 expression in the cerebral arterial wall: immunohistochemistry staining, levels 0 to 2
Experimental: (§1) A male C57BL/6J mouse was purchased from Samtako Bio Korea, and, after acclimation for about 1 week, the healthy animals were housed in a polycarbonate cage with random allocation to each test group. Environmental condition for breeding includes a temperature of 22±3° C., relative humidity of 50±10%, lighting hour of 12 hours, and illuminance of 150 to 300 lux. The animals were allowed free access to food and water. Hypertension was induced by a high salt diet, unilateral nephrectomy, and subcutaneous pump infusion of angiotensin II.
(§2) Specifically, a male C57BL/6J mouse was anesthetized with isoflurane gas and the left kidney was removed by surgery. One week after the surgery, the mouse was fixed onto a nose cone, anesthetized with isoflurane gas by inhalation, and then fixed on a stereostatic system. By using a 10 μl Hamilton syringe, 10 μl of 1.0 U elastase solution was injected to the right cistern to induce cerebral aneurysm. For elastase injection, 1.0 U elastase was injected through a hole on the right skull, under anesthetization with isoflurane gas by inhalation, by pushing the syringe to a space of cerebrospinal fluid in the right bottom, 2.5 mm behind the bregma (parietal point) and 1.0 mm to the right of the center line, and elastase was injected to the depth of 5.0 min.
(§3) After that, to have a continuous infusion of angiotensin II, an osmotic pump was subcutaneously inserted (1000 ng/kg/min) and cerebral aneurysm was induced by performing a high salt diet (8% NaCl, Enbigo) for 14 days (FIG. 2).
(§4) To the all test groups, the pharmaceutical was administered in an amount of 0.1 ml.
(§5) By using the brain tissues harvested in above Example 2, a change in the expression level of MMP-9 in the cerebral arterial wall was determined by immunohistochemistry (IHC) staining. The result was classified into level 0 to level 2 and subjected to statistical analysis, while it was measured by real-time PCR and Western blot.
(§6) For the real-time PCR performed in above Examples 4 to 6, the primers described in the following Table 1 were used.

CD68 = CD68 (macrophage marker) expression in cerebral arterial wall (IHC); format: in vivo, mouse; conditions: immunohistochemistry staining, levels 0 to 2; compared to diseased group (D)
Experimental: as §1
Specifically, a male C57BL/6J mouse was anesthetized with isoflurane gas and the left kidney was removed by surgery. One week after the surgery, the mouse was fixed onto a nose cone, anesthetized with isoflurane gas by inhalation, and then fixed on a stereostatic system. By using a 10 μl Hamilton syringe, 10 μl of 1.0 U elastase solution was injected to the right cistern to induce cerebral aneurysm. […]
as §5, with “MCP-1 and CD68” for “MMP-9”

RAW 264.7 cells = assay: Cytotoxicity, MTT assay; format: cell-based; conditions: for concentration at which cell viability is lowered by cytotoxicity: MTT assay, treatment time not stated in Example 7; for melittin concentration at which cell viability was significantly decreased: RAW 264.7 cells, 0.1-4 μg/ml tested
NFκB = NFκB expression in cerebral arterial wall (real-time PCR, Western blot); format: in vivo, mouse; conditions: compared to group induced to have cerebral aneurysm; for expression level of NFκB protein: Western blot; for expression level of NFκB gene: real-time PCR
[1] = Stability of melittin solution on storage; format: physicochemical; conditions: 0.36 mM (=1.0 mg/ml) melittin solution, 4° C. for 8 weeks
[2] = tested on: mouse induced to have a cerebral aneurysm; assay: Trichrome staining, collagen content of cerebral artery wall; format: in vivo; conditions: via tail vein, week 4
Experimental: as §1
as §2, with “[…]. […]” for “min.”

TNF-α = TNF-α expression in cerebral arterial wall (IHC, real-time PCR, Western blot); format: in vivo, mouse; conditions: for expression level of TNF-α protein: Western blot; for expression level of TNF-α protein / expression level of TNF-α gene: compared to group induced to have cerebral aneurysm; for expression level of TNF-α in cerebral arterial wall: immunohistochemistry staining, levels 0 to 2, compared to diseased group (D); for expression level of TNF-α gene: real-time PCR
Experimental: as §1, §2, §3, §4
as §5, with “TNF-α” for “MMP-9”, “blot assays.” for “blot.”
as §6

[3] = tested on: mouse induced to have a cerebral aneurysm; assay: Verhoff Van Gieson staining, elastin content of cerebral arterial wall; format: in vivo; conditions: healthy group 37.6±8.8%, diseased group 5.9±3.7%; via tail vein; week 4
Experimental: as §1
as §2, with “[…]. […]” for “min.”
Elastin content was analyzed by Verhoff Van Gieson staining technique.

[4] = tested on: mouse induced to have a cerebral aneurysm; assay: H&E staining of cerebral arteries (diameter, thickness) in animal model induced to have a cerebral aneurysm; format: in vivo; conditions: compared to diseased group (D); via tail vein, 5 times every three days; brain harvested at week 4
Experimental: as §1, §2, §3
To the all test groups, the pharmaceutical was administered in an amount of 0.1 ml. […]
According to the visualization of cell nucleus, cytoplasm, and extracellular matrix by H&E staining of cerebral artery tissues, a change in the structure and shape of the cerebral artery was analyzed. To examine a change in the brain arterial wall, an immunohistochemical microscopic image was scanned and the diameter and thickness of the artery were measured by using Case Viewer software.

MCP-1 = MCP-1 expression in cerebral arterial wall (IHC, real-time PCR, Western blot); format: in vivo, mouse; conditions: compared to diseased group (D); for expression level of MCP-1 protein: Western blot; for expression level of MCP-1 in the cerebral arterial wall: immunohistochemistry staining, levels 0 to 2
Experimental: as §1, §2, §3, §4
as §5, with “MCP-1 and CD68” for “MMP-9”
as §6

mouse blood = assay: Hemolysis test; format: cell-based; conditions: at 50 μg/mL

Row | Compound | expression level of MMP-9 protein (MMP-9) | MMP-9 expression in the cerebral arterial wall (MMP-9) | expression level of CD68 in the cerebral arterial wall (CD68) | concentration at which cell viability is lowered by cytotoxicity (RAW 264.7 cells) [ng/mL] | expression level of NFκB protein (NFκB) | expression level of NFκB gene (NFκB) | expression level of TNF-α protein (TNF-α) | expression level of TNF-α in cerebral arterial wall (TNF-α) | expression level of TNF-α gene (TNF-α) | elastin content [3] [%] | thickness of cerebral arteries [4] | expression level of MCP-1 protein (MCP-1) | expression level of MCP-1 in the cerebral arterial wall (MCP-1) | also measured
1 | CC[C@H](C)[C@H](NC(=O)CN)C(=O)NCC(=O)N[C@@H](C)C(=O)N[C@H](C(=O)N[C@@H](CC(C)C)C(=O)N[C@@H](CCCCN)C(=O)N[C@H](C(=O)N[C@@H](CC(C)C)C(=O)N[C@H](C(=O)N[C@H](C(=O)NCC(=O)N[C@@H](CC(C)C)C(=O)N1CCC[C@H]1C(=O)N[C@@H](C)C(=O)N[C@@H](CC(C)C)C(=O)N[C@H](C(=O)N[C@@H](CO)C(=O)N[C@@H](Cc1c[nH]c2ccccc12)C(=O)N[C@H](C(=O)N[C@@H](CCCCN)C(=O)N[C@@H](CCCNC(=N)N)C(=O)N[C@@H](CCCCN)C(=O)N[C@@H](CCCNC(=N)N)C(=O)N[C@@H](CCC(N)=O)C(=O)N[C@@H](CCC(N)=O)C(N)=O)[C@@H](C)CC)[C@@H](C)CC)[C@@H](C)O)[C@@H](C)O)C(C)C)C(C)C [MEL, melittin] | lower | suppressed | suppressed | ≥ 500 | lower | lower | lower | suppressed | lower | 19.7±7.8 | increase | lower | suppressed | stability of solution [1]: stably maintained; collagen content compared to the diseased group (D) ([2]; statistical comparison with diseased group): no statistical difference
2 | MeLioN: iron oxide nanoparticle loaded with melittin, formed by linking iron oxide nanoparticle, L-arginine, and melittin | lower | suppressed | suppressed | > 4000 | lower | lower | lower | suppressed | lower | 34.9±6.2 | increase; also recorded: significantly greater | lower | suppressed | expression level of MMP-9 gene (MMP-9; real-time PCR): lower; melittin concentration at which cell viability was significantly decreased (RAW 264.7 cells; 12 h treatment): > 4 µg/mL; melittin concentration at which cell viability was significantly decreased (RAW 264.7 cells; 24 h treatment): > 4 µg/mL; collagen content ([2]; normal group 8.7±3.8%, diseased group 32.0±5.5%): 12.6±5.1%; Hemolysis (mouse blood): approximately 10%; diameter of cerebral arteries [4]: statistically significant decrease; also recorded: significantly smaller; expression level of MCP-1 gene (MCP-1; real-time PCR): lower
